What was measured:
[1] = biological target: T1, recombinant human 5-LOX (Homo sapiens, UniProt P09917); assay: Fluorescence Intensity 5-LOX Enzyme Assay; assay type: biochemical; settings: crude lysate of recombinant human 5-LOX; highest inhibitor concentration tested typically 25 μM
T1 sequence (P09917 1-674): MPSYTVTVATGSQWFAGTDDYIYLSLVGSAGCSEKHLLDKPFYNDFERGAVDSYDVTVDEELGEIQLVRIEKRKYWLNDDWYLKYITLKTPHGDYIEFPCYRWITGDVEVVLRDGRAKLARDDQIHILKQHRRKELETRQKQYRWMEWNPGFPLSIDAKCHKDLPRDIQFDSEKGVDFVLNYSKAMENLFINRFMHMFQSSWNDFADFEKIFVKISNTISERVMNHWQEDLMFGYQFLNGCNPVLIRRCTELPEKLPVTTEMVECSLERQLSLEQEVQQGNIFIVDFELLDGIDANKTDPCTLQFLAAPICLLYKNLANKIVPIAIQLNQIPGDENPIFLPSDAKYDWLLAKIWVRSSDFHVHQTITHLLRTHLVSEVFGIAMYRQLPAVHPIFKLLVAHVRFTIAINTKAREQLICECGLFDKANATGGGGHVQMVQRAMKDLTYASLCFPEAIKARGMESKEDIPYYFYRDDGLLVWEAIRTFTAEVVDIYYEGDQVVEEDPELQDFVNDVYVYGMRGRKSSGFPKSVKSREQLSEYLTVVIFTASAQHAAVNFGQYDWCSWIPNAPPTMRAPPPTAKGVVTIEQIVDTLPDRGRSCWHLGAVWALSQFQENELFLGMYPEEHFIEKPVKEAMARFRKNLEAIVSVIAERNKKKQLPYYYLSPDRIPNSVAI
Summary of the method: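 Crude lysate enzyme with H2DCFDA 10 μM (5 min dye pre-incubation), inhibitor pre-incubated 10 min; reaction started with 3 μM arachidonic acid plus 10 μM ATP in Tris pH 7.5, CaCl2, EDTA, 20 min at room temperature, acetonitrile stop. Fluorescein fluorescence; 7-point 4-parameter IC50, top 25 μM, 2.5% DMSO.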

[2] = system: eicosanoid production in the rat air pouch; assay: Carrageenan-induced eicosanoid production in the rat air pouch; assay type: in vivo; settings: po, male Lewis rats, 3 mpk by gavage 1 hour prior to carrageenan
Procedure: Carrageenan-Induced Eicosanoid Production in the Rat Air Pouch:
Male Lewis rats (175-200 g), Charles River Laboratories, Wilmington, Mass.) were used in the study. Air pouches were produced by subcutaneous injection of 20 ml of sterile air into the intrascapular area of the back. Pouches were allowed to develop for 1 day. Animals (6 per group) were fasted with free access to water for 16 to 24 hours prior to drug administration. Drugs or vehicle were administered by gavage 1 hour prior to injection of 2 ml of a 1% suspension of carrageenan (FMC BioPolymer, Philadelphia, Pa., Cat. # GP209-NF) dissolved in saline into the pouch. At 3 hours post-carrageenan injection, 1 ml of 50 μg/ml calcium ionophore in saline (A23187, Sigma Chemical Co, St. Louis, M, Cat. #C-7522) was injected into the pouch and the pouch fluid collected 10 minutes later by lavage. The fluid was centrifuged at 3500 rpm for 10 minutes at 4° C., and the supernatants were collected for analysis. Leukotriene and prostaglandin levels were quantitated by ELISA according to the manufacturer's directions (Cayman Chemical Company, Ann Arbor, Mi).

[3] = system: human whole blood (leukotriene and prostaglandin levels); assay: Eicosanoid production from human whole blood; assay type: cell-based; settings: human whole blood stimulated with calcium ionophore A23187 and arachidonic acid; ELISA
Summary of the method: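 Pooled heparinized whole blood from healthy or asthmatic donors was preincubated with compound for 10 min at room temperature, with 2.5% DMSO final. It was stimulated with calcium ionophore A23187 plus arachidonic acid (30 μM) in 60% ethanol for 15 min at 37 °C. Plasma leukotrienes and prostaglandins were measured by ELISA.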

IC50 [1] [nM] | IC50 [3] [nM] | SMILES | inhibition at 3 mg/kg [2] [%]
30 | 62.5 | C[C@H]1C[C@@](C#N)(c2cccc(Sc3ccc(-c4ccnn4C)cc3)c2F)CCO1 [29(2), (2S,4R)-4-(2-fluoro-3-(4-(1-methyl-1H-pyrazol-5-yl)phenylthio)phenyl)-2-methyl-tetrahydro-2H-Pyran-4-carbonitrile] | 100
113 | 55.7 | C[C@H]1C[C@@](C#N)(c2cccc(Sc3ccc(-c4ccnn4C)c(F)c3)c2)CCO1 [30(2), (2S,4R)-4-(3-(3-fluoro-4-(1-methyl-1H-pyrazol-5-yl)phenylthio)phenyl)-2-methyl-tetrahydro-2H-pyran-4-carbonitrile] | 95
21.5 | 59.8 | C[C@H]1C[C@@](C#N)(c2cccc(Sc3ccc(-c4ccnn4C)c(F)c3)c2F)CCO1 [31(1), (2S,4R)-4-(2-fluoro-3-(3-fluoro-4-(1-methyl-1H-pyrazol-5-yl)phenylthio)phenyl)-2-methyl-tetrahydro-2H-pyran-4-carbonitrile] | 96
151 | 107 | C[C@H]1C[C@@](C#N)(c2cc(F)cc(Sc3ccc(-c4ccnn4C)c(F)c3)c2)CCO1 [32(1), (2S,4R)-4-(3-fluoro-5-(3-fluoro-4-(1-methyl-1H-pyrazol-5-yl)phenylthio)phenyl)-2-methyl-tetrahydro-2H-pyran-4-carbonitrile] | 93
29.1 | 118 | C[C@H]1C[C@@](C#N)(c2cccc(Sc3cnc(Oc4ccnn4C)c(Cl)c3)c2F)CCO1 [52(4), (2S,4R)-4-(3-(5-chloro-6-(1-methyl-1H-pyrazol-5-yloxy)pyridin-3-ylthio)-2-fluorophenyl)-2-methyl-tetrahydro-2H-pyran-4-carbonitrile] | 97
877 | 275 | Cc1nccn1-c1ccc(Sc2cccc(C3(C(N)=O)CCOCC3)c2)cc1 [(d), 4-(3-(4-(2-methyl-1H-imidazol-1-yl)phenylthio)phenyl)-tetrahydro-2H-pyran-4-carboxamide, reference compound] | 73.1
89.7 | 76.5 | Cn1nccc1-c1ccc(Sc2cccc(C3(C(N)=O)CCOCC3)c2)cc1Cl [Example 1, 4-(3-{[3-chloro-4-(1-methyl-1H-pyrazol-5-yl)phenyl]thio}phenyl)tetrahydro-2H-pyran-4-carboxamide] | 50.5
660 | 196 | Cn1nccc1-c1ccc(Sc2cccc(C3(C(N)=O)CCOCC3)c2)cc1C#N [Example 2, 4-(3-{[3-Cyano-4-(1-methyl-1H-pyrazol-5-yl)phenyl]thio}phenyl)tetrahydro-2H-pyran-4-carboxamide] | 0
287 | 294 | CNC(=O)C1(c2cccc(Sc3ccc(-c4ccnn4C)cc3)c2)CCOCC1 [Example 10, N-Methyl-4-(3-{[4-(1-methyl-1H-pyrazol-5-yl)phenyl]thio}phenyl)tetrahydro-2H-pyran-4-carboxamide] | 5
386 | 260 | Cn1nccc1-c1ncc(Sc2cccc(C3(C(N)=O)CCOCC3)c2)cc1Cl [Example 11, 4-(3-{[5-chloro-6-(1-methyl-1H-pyrazol-5-yl)pyridin-3-yl]thio}phenyl)tetrahydro-2H-pyran-4-carboxamide] | 69
54 | 119 | Cn1nccc1-c1ccc(Sc2cccc(C3(C(N)=O)CCOCC3)c2)c(Cl)c1 [Example 13, 4-(3-{[2-chloro-4-(1-methyl-1H-pyrazol-5-yl)phenyl]thio}phenyl)tetrahydro-2H-pyran-4-carboxamide] | 1
264 | 365 | Cn1nccc1-c1ccc(Sc2cc(F)cc(C3(C(N)=O)CCOCC3)c2)cc1 [Example 15, 4-(3-fluoro-5-{[4-(1-methyl-1H-pyrazol-5-yl)phenyl]thio}phenyl)tetrahydro-2H-pyran-4-carboxamide] | 68.5
67.9 | 331 | CNC(=O)C1(c2cccc(Sc3ccc(-c4ccnn4C)cc3Cl)c2)CCOCC1 [Example 16, 4-(3-{[2-chloro-4-(1-methyl-1H-pyrazol-6-yl)phenyl]thio}phenyl)-N-methyltetrahydro-2H-pyran-4-carboxamide] | 0
146 | 962 | CNC(=O)C1(c2cccc(Sc3ccc(-c4ccnn4C)cc3)c2F)CCOCC1 [Example 17, 4-(2-fluoro-3-{[4-(1-methyl-1H-pyrazol-5-yl)phenyl]thio}phenyl)-N-methyl-tetrahydro-2H-pyran-4-carboxamide] | 83
114 | 996 | CNC(=O)C1(c2cc(F)cc(Sc3ccc(-c4ccnn4C)cc3)c2F)CCOCC1 [Example 19, 4-(2,5-difluoro-3-{[4-(1-methyl-1H-pyrazol-5-yl)phenyl]thio}phenyl)-N-methyltetrahydro-2H-pyran-4-carboxamide] | 95.3
225 | 448 | Cn1nccc1-c1ccc(Sc2c(F)ccc(C3(C(N)=O)CCOCC3)c2F)cc1 [Example 20, 4-(2,4-difluoro-3-{[4-(1-methyl-1H-pyrazol-5-yl)phenyl]thio}phenyl)-tetrahydro-2H-pyran-4-carboxamide] | 91
567 | 859 | Cn1nccc1-c1ccc(Sc2cc(C3(C(N)=O)CCOCC3)ccc2F)cc1 [Example 21, 4-(4-fluoro-3-(4-(1-methyl-1H-pyrazol-5-yl)phenylthio)phenyl)-tetrahydro-2H-pyran-4-carboxamide] | 96
16.4 | 185 | C[C@H]1C[C@@](C(N)=O)(c2cccc(Sc3ccc(-c4ccnn4C)cc3)c2)CCO1 [Example 22, (2S,4R)-2-methyl-4-(3-(4-(1-methyl-1H-pyrazol-5-yl)phenylthio)phenyl)-tetrahydro-2H-pyran-4-carboxamide] | 99.5
39.8 | 314 | C[C@H]1C[C@@](C(N)=O)(c2ccc(F)c(Sc3ccc(-c4ccnn4C)cc3)c2)CCO1 [Example 23, (2S,4R)-4-(4-fluoro-3-(4-(1-methyl-1H-pyrazol-5-yl)phenylthio)phenyl)-2-methyl-tetrahydro-2H-pyran-4-carboxamide] | 76
692 | 150 | C[C@H]1C[C@@](C#N)(c2ccc(F)c(Sc3ccc(-c4ccnn4C)cc3)c2)CCO1 [Example 24, (2S,4R)-4-(4-fluoro-4-(4-(1-methyl-1H-pyrazol-5-yl)phenylthio)phenyl)-2-methyl-tetrahydro-2H-pyran-4-carbonitrile] | 32
19.8 | 138 | C[C@H]1C[C@@](C(N)=O)(c2cc(F)cc(Sc3ccc(-c4ccnn4C)cc3)c2)CCO1 [Example 27, (2S,4R)-4-(3-fluoro-5-(4-(1-methyl-1H-pyrazol-5-yl)phenylthio)phenyl)-2-methyl-tetrahydro-2H-pyran-4-carboxamide] | 100
21 | 227 | C[C@H]1C[C@@](C(N)=O)(c2ccc(F)c(Sc3ccc(-c4ccnn4C)cc3)c2F)CCO1 [Example 28, (2S,4R)-4-(2,4-difluoro-3-(4-(1-methyl-1H-pyrazol-5-yl)phenylthio)phenyl)-2-methyl-tetrahydro-2H-pyran-4-carboxamide] | 100

— patent US8097733B2, “Pyrazole derivatives as 5-LO-inhibitors” (Pfizer Inc., priority 2007, dated 2012)
